Laboratory results published in patent US9499547B2 (BAYER INTELLECTUAL PROPERTY GMBH, priority 2011, dated 2016).

Key:
[1] = molecular target: T1, human full-length MKNK1 (Homo sapiens (Human), UniProt Q9BUB5, T344D); test: MKNK1 kinase assay (MKNK1 TR-FRET assay); type: biochemical; details: 10 μM ATP final conc.; 15 min preincubation with enzyme
Procedure: MKNK1-inhibitory activity of compounds of the present invention was quantified employing the MKNK1 TR-FRET assay as described in the following paragraphs.
As substrate for the kinase reaction the biotinylated peptide biotin-Ahx-[…] (C-terminus in amide form) was used which can be purchased e.g. form the company Biosyntan (Berlin-Buch, Germany).
(§1) For the assay 50 nL of a 100 fold concentrated solution of the test compound in DMSO was pipetted into a black low volume 384 well microtiter plate (Greiner Bio-One, Frickenhausen, Germany), 2 μL of a solution of MKNK1 in aqueous assay buffer [50 mM HEPES pH 7.5, 5 mM magnesium chloride, 1.0 mM dithiothreitol, 0.005% (v/v) Nonidet-P40 (Sigma)] was added and the mixture was incubated for 15 min at 22° C. to allow pre-binding of the test compounds to the enzyme before the start of the kinase reaction. Then the kinase reaction was started by the addition of 3 μL of a solution of adenosine-tri-phosphate (ATP, 16.7 μM=>final conc. in the 5 μL assay volume is 10 μM) and substrate (0.1 μM=>final conc. in the 5 μL assay volume is 0.06 μM) in assay buffer and the resulting mixture was incubated for a reaction time of 45 min at 22° C. The concentration of MKNK1 was adjusted depending of the activity of the enzyme lot and was chosen appropriate to have the assay in the linear range, typical concentrations were in the range of 0.05 μg/ml. The reaction was stopped by the addition of 5 μL of a solution of TR-FRET detection reagents (5 nM streptavidine-XL665 [Cisbio Bioassays, Codolet, France] and 1 nM anti-ribosomal protein S6 (pSer236)-antibody from Invitrogen [#44921G] and 1 nM LANCE EU-W1024 labeled ProteinG [Perkin-Elmer, product no. AD0071]) in an aqueous EDTA-solution (100 mM EDTA, 0.1% (w/v) bovine serum albumin in 50 mM HEPES pH 7.5).
(§2) The resulting mixture was incubated for 1 h at 22° C. to allow the formation of complex between the phosphorylated biotinylated peptide and the detection reagents. Subsequently the amount of phosphorylated substrate was evaluated by measurement of the resonance energy transfer from the Eu-chelate to the streptavidine-XL. Therefore, the fluorescence emissions at 620 nm and 665 nm after excitation at 350 nm were measured in a TR-FRET reader, e.g. a Rubystar (BMG Labtechnologies, Offenburg, Germany) or a Viewlux (Perkin-Elmer). The ratio of the emissions at 665 nm and at […] was taken as the measure for the amount of phosphorylated substrate. The data were normalised (enzyme reaction without inhibitor=0% inhibition, all other assay components but no enzyme=100% inhibition).

[2] = molecular target: T1, human full-length MKNK1; test: MKNK1 kinase high ATP assay (TR-FRET-based); type: biochemical; details: 2 mM ATP final conc.; 15 min preincubation with enzyme
Procedure: MKNK1 Kinase High ATP Assay
MKNK1-inhibitory activity at high ATP of compounds of the present invention after their preincubation with MKNK1 was quantified employing the TR-FRET-based MKNK1 high ATP assay as described in the following paragraphs.
As substrate for the kinase reaction the biotinylated peptide biotin-Ahx-[…] (C-terminus in amide form) was used, which can be purchased e.g. from the company Biosyntan (Berlin-Buch, Germany).
as §1, with “3.3 mM=>final” for “16.7 μM=>final”, “2 mM)” for “10 μM)”, “30” for “45”, “0.003 μg/mL.” for “0.05 μg/ml.”
as §2

T1 sequence (Q9BUB5 other isoform, or with tags, fused parts or gaps T344D): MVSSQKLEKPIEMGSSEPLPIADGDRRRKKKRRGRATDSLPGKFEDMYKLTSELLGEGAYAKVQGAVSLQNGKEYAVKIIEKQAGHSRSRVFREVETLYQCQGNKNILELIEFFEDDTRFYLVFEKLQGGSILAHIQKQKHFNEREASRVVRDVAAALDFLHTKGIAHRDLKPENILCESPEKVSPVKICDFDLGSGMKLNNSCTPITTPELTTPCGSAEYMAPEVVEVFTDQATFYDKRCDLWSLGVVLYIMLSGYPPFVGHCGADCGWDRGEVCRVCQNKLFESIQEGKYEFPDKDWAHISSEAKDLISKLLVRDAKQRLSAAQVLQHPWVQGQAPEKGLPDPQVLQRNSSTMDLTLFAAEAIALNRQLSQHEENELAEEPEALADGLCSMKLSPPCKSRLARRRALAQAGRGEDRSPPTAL

Structure (SMILES): C[C@H](N)COc1ccc2ncc(-c3cc4c(F)cccc4o3)n2n1 [Example 45, (2S)-1-{[3-(4-Fluoro-1-benzofuran-2-yl)imidazo[1,2-b]pyridazin-6-yl]oxy}-propan-2-amine]
- IC50 [1]: 17 nM
- IC50 [2]: 71 nM

Structure (SMILES): N[C@H](COc1ccc2ncc(-c3cc4c(F)cccc4o3)n2n1)c1ccccc1 [Example 46, (1S)-2-{[3-(4-Fluoro-1-benzofuran-2-yl)imidazo[1,2-b]pyridazin-6-yl]oxy}-1-phenylethanamine]
- IC50 [1]: 36 nM
- IC50 [2]: 67 nM

Structure (SMILES): C[C@H](CN)Oc1ccc2ncc(-c3cc4cccc(F)c4o3)n2n1 [Example 48, (2R)-2-{[3-(7-Fluoro-1-benzofuran-2-yl)imidazo[1,2-b]pyridazin-6-yl]oxy}-propan-1-amine]
- IC50 [1]: 71 nM
- IC50 [2]: 115 nM

Structure (SMILES): Cc1ccc2oc(-c3cnc4ccc(O[C@H](C)CN)nn34)cc2c1 [Example 49, (2R)-2-{[3-(5-Methyl-1-benzofuran-2-yl)imidazo[1,2-b]pyridazin-6-yl]oxy}-propan-1-amine]
- IC50 [1]: 88 nM
- IC50 [2]: 154 nM

Structure (SMILES): N[C@H](COc1ccc2ncc(-c3cc4ccccc4o3)n2n1)Cc1ccccc1 [Example 50, (2S)-1-{[3-(1-Benzofuran-2-yl)imidazo[1,2-b]pyridazin-6-yl]oxy}-3-phenylpropan-2-amine]
- IC50 [1]: 27 nM
- IC50 [2]: 54 nM

Structure (SMILES): NC1(COc2ccc3ncc(-c4cc5ccccc5o4)n3n2)CC1 [Example 51, 1-({[3-(1-Benzofuran-2-yl)imidazo[1,2-b]pyridazin-6-yl]oxy}methyl)cyclopropanamine]
- IC50 [1]: 29 nM
- IC50 [2]: 74 nM

Structure (SMILES): NCC(COc1ccc2ncc(-c3cc4ccccc4o3)n2n1)c1ccccc1 (centres unmarked) [Example 52, 3-{[3-(1-Benzofuran-2-yl)imidazo[1,2-b]pyridazin-6-yl]oxy}-2-phenylpropan-1-amine]
- IC50 [1]: 17 nM
- IC50 [2]: 30 nM
